Measurements from patent US7297489B2, “Mutations in and genomic structure of HERG—a long QT syndrome gene” (University of Utah Research Foundation, priority 1998, dated 2007).
Like-named read-outs stand apart in the source and are kept apart here.

Assays:
HERG [1] = biological target: T1, HERG (Homo sapiens, UniProt Q12809); test: HERG current in Xenopus oocytes injected with HERG cRNA, two-microelectrode voltage clamp; settings: for effect on current magnitude or voltage-dependence of channel activation: 1 mM within 30 min of application
T1 sequence (Q12809 whole entry): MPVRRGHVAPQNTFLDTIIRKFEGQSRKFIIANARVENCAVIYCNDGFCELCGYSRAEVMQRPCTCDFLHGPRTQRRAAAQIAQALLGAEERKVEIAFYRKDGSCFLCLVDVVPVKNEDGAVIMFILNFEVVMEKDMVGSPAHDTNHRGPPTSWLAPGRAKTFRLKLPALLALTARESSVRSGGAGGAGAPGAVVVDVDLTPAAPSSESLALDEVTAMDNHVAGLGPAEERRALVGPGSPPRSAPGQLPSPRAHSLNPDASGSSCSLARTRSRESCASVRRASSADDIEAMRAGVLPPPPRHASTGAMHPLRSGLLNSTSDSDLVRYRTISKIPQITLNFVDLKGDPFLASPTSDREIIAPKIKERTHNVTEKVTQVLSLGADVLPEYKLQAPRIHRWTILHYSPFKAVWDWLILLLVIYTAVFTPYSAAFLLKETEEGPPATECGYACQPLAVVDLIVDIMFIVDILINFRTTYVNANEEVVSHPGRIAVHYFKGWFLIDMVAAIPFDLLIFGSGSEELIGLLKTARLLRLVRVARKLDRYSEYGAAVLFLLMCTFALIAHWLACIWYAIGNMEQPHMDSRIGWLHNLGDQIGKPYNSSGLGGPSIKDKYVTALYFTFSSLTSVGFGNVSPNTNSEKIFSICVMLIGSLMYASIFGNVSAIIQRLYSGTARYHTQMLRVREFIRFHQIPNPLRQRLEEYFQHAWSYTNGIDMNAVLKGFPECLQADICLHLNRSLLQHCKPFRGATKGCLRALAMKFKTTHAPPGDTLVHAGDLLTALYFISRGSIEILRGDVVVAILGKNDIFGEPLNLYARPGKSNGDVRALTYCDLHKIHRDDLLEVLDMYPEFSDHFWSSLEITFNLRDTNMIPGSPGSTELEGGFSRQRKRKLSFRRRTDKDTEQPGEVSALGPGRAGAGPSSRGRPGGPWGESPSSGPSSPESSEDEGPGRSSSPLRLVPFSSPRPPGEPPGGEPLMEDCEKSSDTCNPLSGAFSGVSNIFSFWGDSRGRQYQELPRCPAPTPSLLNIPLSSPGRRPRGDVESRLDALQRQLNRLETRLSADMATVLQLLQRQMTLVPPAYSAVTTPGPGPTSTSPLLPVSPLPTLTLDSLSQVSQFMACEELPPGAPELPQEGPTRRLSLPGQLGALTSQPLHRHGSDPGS
Protocol: (§1) The characteristics of the expressed channel were studied in oocytes 2-6 days after cRNA injection using standard two-microelectrode voltage clamp techniques. HERG current was activated in response to test potentials >−50 mV. […] Deactivation of current (tail current) was assessed after return of the membrane to the holding potential of −70 mV. […] The voltage-dependence of channel activation was assessed by plotting the relative amplitude of tail currents as a function of test potential (FIG. 1D).
(§2) Xenopus frogs were anesthetized by immersion in 0.2% tricaine for 15-30 min. Ovarian lobes were digested with 2 mg/ml Type 1A collagenase (Sigma) in Ca^2+-free ND96 solution for 1.5 hours to remove follicle cells. […] Barth's solution contained (in mM): 88 NaCl, 1 KCl, 0.4 CaCl2, 0.33 Ca(NO3)2, 1 MgSO4, 2.4 NaHCO3, 10 HEPES; pH 7.4.
(§3) Unless indicated, oocytes were bathed in ND96 solution. This solution contained (in mM): 96 NaCl, 2 KCl, 1 MgCl2, 1.8 CaCl2, 5 HEPES; pH 7.6. In some experiments, KCl was varied by equimolar substitution with NaCl. Currents were recorded at room temperature (21-23° C.) using standard two-microelectrode voltage clamp techniques. Glass microelectrodes were filled with 3 M KCl and their tips broken to obtain tip resistances of 1-3 MΩ for the voltage-recording electrode and 0.6-1 MΩ for the current-passing electrode. Oocytes were voltage-clamped with a Dagan TEV-200 amplifier. Voltage commands were generated using pClamp software (ver. 6, Axon Instruments), a 486DX2 personal computer and a TL-1 D/A interface (Axon Instruments). Current signals were digitally sampled at a rate equal to 2-4 times the low-pass cut-off frequency (−3 db) of a 4-pole Bessel filter. Unless indicated, currents were corrected for leak and capacitance using standard, on-line P/3 leak subtraction. The oocyte membrane potential was held at −70 mV between test pulses, applied at a rate of 1-3 pulses/min. Data analyses, including exponential fitting of current traces, were performed using pCLAMP. […] Data are expressed as the mean±SEM (n=number of oocytes).

IKr of cardiac myocytes = settings: cited from earlier work
rcKATP-1 = biological target: T2, rcKATP-1 (Rattus norvegicus, UniProt P48548); settings: expressed in HEK293 cells; cited from earlier work
T2 sequence (P48548 1-419): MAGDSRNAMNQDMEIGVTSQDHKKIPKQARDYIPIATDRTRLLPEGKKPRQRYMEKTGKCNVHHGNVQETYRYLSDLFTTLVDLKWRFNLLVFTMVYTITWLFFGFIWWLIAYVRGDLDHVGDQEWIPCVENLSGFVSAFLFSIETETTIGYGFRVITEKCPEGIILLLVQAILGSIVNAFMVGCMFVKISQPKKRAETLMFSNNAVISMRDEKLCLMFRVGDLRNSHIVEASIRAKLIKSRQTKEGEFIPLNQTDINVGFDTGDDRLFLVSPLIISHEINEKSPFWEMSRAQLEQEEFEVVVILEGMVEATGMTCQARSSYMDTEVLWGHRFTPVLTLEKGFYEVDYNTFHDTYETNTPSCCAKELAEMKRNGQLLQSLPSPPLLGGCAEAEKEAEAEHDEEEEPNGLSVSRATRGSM

IKr (mouse AT-1 cells) = biological target: T3, IKr (mouse AT-1 cells) (Mus musculus, UniProt O35219); settings: cited from earlier work
T3 sequence (O35219 1-1162): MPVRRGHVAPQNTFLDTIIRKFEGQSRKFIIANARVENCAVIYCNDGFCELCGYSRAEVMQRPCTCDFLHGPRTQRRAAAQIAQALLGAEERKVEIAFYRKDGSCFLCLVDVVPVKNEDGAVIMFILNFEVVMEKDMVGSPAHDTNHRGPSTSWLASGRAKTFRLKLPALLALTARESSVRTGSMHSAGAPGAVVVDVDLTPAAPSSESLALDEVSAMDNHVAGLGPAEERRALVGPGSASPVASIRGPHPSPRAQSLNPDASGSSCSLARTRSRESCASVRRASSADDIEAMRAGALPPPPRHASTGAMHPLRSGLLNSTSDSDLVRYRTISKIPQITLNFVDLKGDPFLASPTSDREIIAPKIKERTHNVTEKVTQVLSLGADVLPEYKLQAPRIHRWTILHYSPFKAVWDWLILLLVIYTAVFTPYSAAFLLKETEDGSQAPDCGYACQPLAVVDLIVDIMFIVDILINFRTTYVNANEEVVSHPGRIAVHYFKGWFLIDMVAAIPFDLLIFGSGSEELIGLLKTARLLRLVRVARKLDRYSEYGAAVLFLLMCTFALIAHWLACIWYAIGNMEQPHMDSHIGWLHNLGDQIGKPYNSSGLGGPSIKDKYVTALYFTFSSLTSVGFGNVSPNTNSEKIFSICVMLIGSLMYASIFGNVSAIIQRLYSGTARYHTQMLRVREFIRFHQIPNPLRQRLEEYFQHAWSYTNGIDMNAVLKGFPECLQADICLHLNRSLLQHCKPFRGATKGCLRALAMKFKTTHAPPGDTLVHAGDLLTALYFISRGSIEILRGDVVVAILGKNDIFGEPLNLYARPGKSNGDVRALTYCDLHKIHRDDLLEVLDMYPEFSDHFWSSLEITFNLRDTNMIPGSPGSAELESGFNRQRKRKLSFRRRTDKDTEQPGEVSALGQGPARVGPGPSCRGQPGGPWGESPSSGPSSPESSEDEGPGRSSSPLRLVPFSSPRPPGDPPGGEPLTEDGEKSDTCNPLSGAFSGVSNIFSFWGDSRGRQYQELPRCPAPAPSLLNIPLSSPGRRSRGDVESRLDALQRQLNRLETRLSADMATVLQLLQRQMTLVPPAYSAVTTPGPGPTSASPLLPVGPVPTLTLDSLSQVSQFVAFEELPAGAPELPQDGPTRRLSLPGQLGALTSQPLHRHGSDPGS

HERG [2] = biological target: T1, HERG
Protocol: as §1, §2, §3

IKr (guinea pig heart) = biological target: T4, IKr (guinea pig heart) (Cavia porcellus, UniProt O08703); settings: read-out: IC50 (blockers, methanesulfonanilides); cited from earlier work
T4 construct: host or cells: guinea pig cardiac myocytes (endogenous current)
T4 sequence (O08703 1-1294): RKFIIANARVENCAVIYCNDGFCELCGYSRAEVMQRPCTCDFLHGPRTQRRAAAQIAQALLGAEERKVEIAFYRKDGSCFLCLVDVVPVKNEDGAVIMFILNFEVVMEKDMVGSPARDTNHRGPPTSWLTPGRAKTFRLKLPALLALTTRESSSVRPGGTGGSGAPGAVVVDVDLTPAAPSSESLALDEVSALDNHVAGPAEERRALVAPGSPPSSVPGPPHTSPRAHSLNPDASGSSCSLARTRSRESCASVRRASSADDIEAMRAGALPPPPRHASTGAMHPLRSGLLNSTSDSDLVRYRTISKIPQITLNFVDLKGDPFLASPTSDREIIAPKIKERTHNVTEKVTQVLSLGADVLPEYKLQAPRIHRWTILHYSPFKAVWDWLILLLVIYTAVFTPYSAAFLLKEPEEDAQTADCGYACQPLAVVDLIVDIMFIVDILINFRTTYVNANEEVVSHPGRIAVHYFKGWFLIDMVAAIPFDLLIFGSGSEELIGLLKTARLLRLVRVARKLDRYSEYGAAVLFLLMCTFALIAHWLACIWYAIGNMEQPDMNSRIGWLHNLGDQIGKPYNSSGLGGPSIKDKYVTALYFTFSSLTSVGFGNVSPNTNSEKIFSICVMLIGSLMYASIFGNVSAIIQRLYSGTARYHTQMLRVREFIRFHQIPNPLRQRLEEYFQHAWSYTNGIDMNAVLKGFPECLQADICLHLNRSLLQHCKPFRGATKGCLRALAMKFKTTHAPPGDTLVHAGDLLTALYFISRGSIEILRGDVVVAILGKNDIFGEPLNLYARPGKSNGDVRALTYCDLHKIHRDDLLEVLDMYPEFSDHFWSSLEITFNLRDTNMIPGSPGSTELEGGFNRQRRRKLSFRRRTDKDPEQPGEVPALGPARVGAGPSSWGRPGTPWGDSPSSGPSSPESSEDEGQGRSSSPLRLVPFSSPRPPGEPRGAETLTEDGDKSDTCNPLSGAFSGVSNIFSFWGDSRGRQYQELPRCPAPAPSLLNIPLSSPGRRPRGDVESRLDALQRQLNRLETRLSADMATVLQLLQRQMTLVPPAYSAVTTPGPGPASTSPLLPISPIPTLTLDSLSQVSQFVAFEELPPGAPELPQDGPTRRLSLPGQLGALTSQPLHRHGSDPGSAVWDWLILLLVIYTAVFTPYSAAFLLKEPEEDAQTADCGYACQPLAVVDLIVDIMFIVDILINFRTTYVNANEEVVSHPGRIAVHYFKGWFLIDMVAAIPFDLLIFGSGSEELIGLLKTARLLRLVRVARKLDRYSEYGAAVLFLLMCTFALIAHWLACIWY

## [Co+2] [Co^2+, cobalt]
HERG [1]; 2 mM Co^2+, n=2
  block of HERG current: 52%
IKr of cardiac myocytes; 2 mM cobalt
  block of IKr: blocked

## [K+] [K^+]
HERG [1]; [K^+]e 5 mM versus 2 mM
  increase of HERG current: 40%

## COc1ccc(Cl)cc1C(=O)NCCc1ccc(S(=O)(=O)NC(=O)NC2CCCCC2)cc1 [glibenclamide]
rcKATP-1
  block of the channel: not blocked

## CC(C)NCC(O)c1ccc(O)c(O)c1 (stereo not shown) [isoproterenol]
IKr of cardiac myocytes; cardiac myocytes
  increase of IKr: does not increase

## [La+3] [La^3+, lanthanum]
IKr (mouse AT-1 cells)
  Blockers La^3+, Co^2+: +
IKr of cardiac myocytes; 10-100 μM lanthanum
  block of IKr: blocked
HERG [2]
  Blockers La^3+, Co^2+: +
  half-point of activation (isochronal activation curve): +23 mV

## Nc1ncnc2c1nc(Br)n2[C@@H]1O[C@@H]2COP(=O)(O)O[C@H]2[C@H]1O [8-Br-cAMP]
HERG [1]
  activation of HERG: not activated
  effect on current magnitude or voltage-dependence of channel activation: Neither compound had a significant effect

## Nc1nc2c(nc(Br)n2[C@@H]2O[C@@H]3COP(=O)(O)O[C@H]3[C@H]2O)c(=O)[nH]1 [8-Br-cGMP]
HERG [1]
  effect on current magnitude or voltage-dependence of channel activation: Neither compound had a significant effect

## CS(=O)(=O)Nc1ccc2c(c1)[C@H](O)CC1(CCN([C@@H]3CCc4cc(C#N)ccc4C3)CC1)O2 [MK-499]
IKr (guinea pig heart)
  IC50: 0.044 µM
